In article PMC9267992, “Synthesis, Self-Assembly, and Cell Responses of Aromatic IKVAV Peptide Amphiphiles” (Molecules, 2022):

Legend:
[1] = not given; remark: listed apart in the source
[2] = not given; remark: listed apart in the source
[3] = Hydrogelation / self-assembly under physiological conditions; type: physicochemical; conditions: for hydrogel formation: 1 wt.% (ca. 15 mM), pH 7.4; for Tgel-sol: hydrogel
Source text: (§1) For biomedical applications, the self-assembly properties of Ben-IKVAV and PFB-IKVAV were investigated under physiological conditions. […] The corresponding microscopic morphologies were examined by transmission electron microscopy (TEM). […] The nanofibers are intertwined to form fiber bundles with a width of about 17 ± 1 nm. In contrast, PFB-IKVAV produces short nanofibers (diameter around 10 ± 1 nm). These fibrous nanostructures are distributed in water and entangled within a highly organized peptide-amphiphile nanofibers network (i.e., Ben-IKVAV and PFB-IKVAV), allowing for the formation of stable hydrogels. Moreover, the Tgel-sol of Ben-IKVAV and PFB-IKVAV were 65 and 55 °C, respectively. […] Furthermore, the self-assembly of Ben-IKVAV and PFB-IKVAV are viscoelastic gels, because the values of the G′ are higher than those of the loss modulus (G″) in both gels.

hMSCs [4] = assay: MTT cell viability test; type: cell-based, human; conditions: for cell viability: 500 μM, 48 h, ODsample/ODcontrol; for IC50: 10–500 μM, 24 and 48 h, read-out: half-inhibitory concentration (IC50)
Description: To evaluate the potential biological applications of Ben-IKVAV and PFB-IKVAV, we performed a biocompatibility test of these hydrogelators against hMSCs through MTT [3-(4,5-dimethylthiazol-2-yl)-2,5-diphenyltetrazolium bromide] assay, and the results are presented in Figure 6. The concentrations of Ben-IKVAV and PFB-IKVAV were selected in the range of 10–500 μM, and the cell viability measurements were processed at 24 and 48 h after cell seeding.
The biocompatibilities of Ben-IKVAV and PFB-IKVAV were measured by the MTT cell viability test. The hMSCs were seeded in 24-well plates (density: 50,000 cells per well) with Dulbecco’s modified Eagle’s medium (DMEM, 0.5 mL) containing 10% […] and 1% penicillin/streptomycin solution and then incubated for 24 h. Compounds of Ben-IKVAV and PFB-IKVAV at different concentrations (10, 50, 100, 200, and 500 µM) were added when cells were plated. After 24 and 48 h, the medium was replaced with fresh medium supplemented with MTT reagent (4 mg mL^–1, 0.5 mL per well). After another 4 h, the medium containing MTT was removed, and DMSO (0.5 mL per well) was added to dissolve the formazan crystals. Each of the 24 wells was transferred to a 96-well plate. The optical densities (ODs) of the resulting solutions were measured at 595 nm using an absorbance microplate reader (Infinite F50, TECAN, Männedorf, Switzerland). Cells that had not been subjected to treatment with the compounds were used as the control. The cell viability percentage (%) was calculated from the expression ODsample/ODcontrol.

[5] = Oscillatory rheology of the hydrogels; type: physicochemical; conditions: 1 wt.%, pH 7.4, oscillatory rheology, ω = 0.1–100 rad·s^−1
Source text: as §1
Figure 3 Frequency-dependent (ω = 0.1–100 rad·s^−1) rheological measurement of Ben-IKVAV (circle) and PFB-IKVAV (square) at a concentration of 1 wt.% under pH 7.4 (solid for G′ and open for G′′).

[6] = Concentration-dependent circular dichroism in water; type: physicochemical; conditions: CD: no signal at 50 and 500 μM, Cotton effect at 1000 μM
Source text: (§2) Since Ben-IKVAV and PFB-IKVAV could self-assemble to form the network of nanofibers and afford the hydrogels, we further studied the driving force for the intermolecular interactions of the hydrogelators using spectroscopic characterization. […] The UV-vis absorption and circular dichroism (CD) spectra of Ben-IKVAV and PFB-IKVAV in water and methanol are presented in Figure 4. The absorption peaks of Ben-IKVAV are at 262 nm and 254 nm in water and methanol, respectively, indicating the redshift feature caused by the aggregation formation in an aqueous solution. […] CD spectra were recorded to understand the structural properties and molecular arrangement of Ben-IKVAV and PFB-IKVAV (Figure 4C,D). At low concentrations of Ben-IKVAV and PFB-IKVAV (50 and 500 μM) in water, no CD signals were detected in the wavelength region 190–350 nm. […] In addition, Fourier-transform infrared spectroscopy (FT-IR) was employed to verify the hydrogen interactions between molecules in the self-assembled state. […] Since thioflavin T (ThT) is a well-known fluorescent dye utilized to identify the presence of amyloid fibrils, we used the ThT fluorescence assay to further confirm the fibrillar peptide structures present in Ben-IKVAV and PFB-IKVAV. It is known that when ThT binds to β-amyloid fibrils, a remarkable enhancement in fluorescence intensity can be detected at 484 nm. […]

MAP2 in hMSCs = assay: Immunofluorescent staining for neuronal-specific marker MAP2; type: cell-based, human; conditions: neural induction medium in the presence of the peptide, day 7
Source text: After neuronal inductions of hMSCs, immunofluorescent staining for neuronal-specific markers of β-tubulin and MAP2 was achieved. Figure 10 presents immunostaining for β-tubulin (green) with DAPI (blue) co-staining in hMSCs cultured with NIM (control), NIM in the presence of Ben-IKVAV, and NIM in the presence of PFB-IKVAV for days 1, 2, and 7. It can be seen that there is no β-tubulin stained on day 1. […] On the 7th day of culture, a more evident increase of β-tubulin was observed. […] It is speculated that the nuclear entry may be related to the initiation of the regulation of the gene level in the nucleus to make the differentiation more complete. […] After 7 days of differentiation, the cells gradually tended to mature nerve cells. Among these materials, PFB-IKVAV is the best one for helping cell differentiation.
After neuronal inductions of hMSCs, immunostaining was performed for neuronal-specific markers. Cells were fixed with 4% formaldehyde for 15 min and permeabilized with PBST buffer (0.1% Triton X-100 supplemented with BSA). After permeabilization, cells were blocked with Blocking buffer (PBST buffer + 5% serum) for 30 min and then incubated with primary antibodies β-tubulin (1:100) and MAP2 (1:200) at 4 °C overnight. […] Finally, cells were observed under a fluorescence microscope.

hMSCs [7] = assay: RT-qPCR analysis of neuronal-specific markers (Nestin, β-tubulin, SNCA, MAP2); type: cell-based, human; conditions: 1000 µM in NIM
Description: To investigate whether IKVAV derivatives can effectively promote the differentiation of stem cells into neural cells, we diluted 1 wt.% of Ben-IKVAV and PFB-IKVAV hydrogels with NIM to 1000 µM, respectively, and cultured hMSCs for 0, 2, and 7 days. The mRNA was collected from NIM, NIM in the presence of Ben-IKVAV, and NIM in the presence of PFB-IKVAV and subjected to real-time quantitative polymerase chain reaction (RT-qPCR) analysis. The expression of neuronal-specific markers, Nestin, β-tubulin, SNCA, and MAP2 are analyzed in this work.
Total RNA was isolated from the control and induced (Neurogenic) hMSCs and quantified with a spectrophotometer (NanoPhotometer™ Pearl Design Edition, Westlake Village, CA, USA). Complementary DNA (cDNA) was synthesized from the total purified RNA (1 μg) using a MMLV High-Performance Reverse Transcriptase kit with a 10 μM OligodT primer at 37 °C for 1 h. […] The RT-qPCR reaction was carried out with initial denaturation at 95 °C for 10 min, followed by 40 cycles of PCR at 95 °C for 15 s, and 60 °C for 60 s.

hMSCs [8] = assay: Neural differentiation of hMSCs in neural induction medium (cell morphology, neurite outgrowth); type: cell-based, human; conditions: 1000 μM in NIM; for differentiation of hMSCs into neuron-like cells: cultured 0, 2 and 7 days; for cell morphology and axon extension length (average neurite outgrowth length) versus NIM control: days 2 and 7, n = 50
Description: Since Ben-IKVAV and PFB-IKVAV are biocompatible, we then diluted 1 wt.% of Ben-IKVAV and PFB-IKVAV hydrogels with basal medium and neural induction medium (NIM) to 1000 μM, respectively, and cultured them with hMSCs for 0, 2, and 7 days (Figure S2 and Figure 7). […] The fibrous structures of Ben-IKVAV or PFB-IKVAV scattered in the culture medium (NIM) are combined with cell surface receptors to promote neural differentiation. To understand the effect of neural differentiation of hMSCs, the average neurite outgrowth lengths on days 2 and 7 were measured in the control and experimental groups (i.e., Ben-IKVAV in NIM and PFB-IKVAV in NIM).
The hMSCs were grown in 24-well plates (density: 2.4 × 10^5 cells per well) in NIM supplemented with 1% penicillin/streptomycin, 10^−7 M dexamethasone, 50 μg/mL L-Ascorbic acid-2 phosphate, 50 μM indomethacin, 10 μg/mL insulin, and 0.45 mM 3-isobutyl-1-methyl-xanthine. The cells cultured in a basal medium were used as a negative control.

[9] = Negatively stained TEM of the hydrogels; type: physicochemical; conditions: 1 wt.%, pH 7.4
Source text: as §1
Figure 2 Optical (insets) and negatively stained TEM images of (A) Ben-IKVAV and (B) PFB-IKVAV at a concentration of 1 wt.% under pH 7.4. (Scale bar: 100 nm).

[10] = Thioflavin T (ThT) fluorescence assay for fibrillar peptide structures; type: physicochemical; conditions: ratio of ThT emission intensities (I0: without adding hydrogelators), emission at 484 nm
Source text: as §2

[11] = not given; remark: listed apart in the source

phenyl-capped Ile-Lys-Val-Ala-Val
FT-IR absorption peak (hydrogen bonding): 1630 cm⁻¹
absorption peak in methanol [1]: 254 nm
absorption peak in water [2]: 262 nm

perfluorophenyl-capped Ile-Lys-Val-Ala-Val [PFB-IKVAV, IKVAV N-terminally coupled with 2-(perfluorophenyl)acetic acid; hydrogelator]
hydrogel formation [3]: form white translucent hydrogels
Tgel-sol [3]: 55 °C
cell viability (hMSCs [4]): over 75%
IC50 (hMSCs [4]): > 500 µM
storage modulus (G′) [5]: 2.4 kPa
concentration at which the peptide self-assembles into high-order supramolecular structures [6]: higher than 1000 μM
immunofluorescent staining for MAP2 relative to neural induction medium (control) (MAP2 in hMSCs): 4.6 times
cell differentiation ability (comparison of the two peptides) (hMSCs [7]): better cell differentiation ability than Ben-IKVAV
differentiation of hMSCs into neuron-like cells (hMSCs [8]): could successfully differentiate hMSCs into neuron-like cells
cell morphology and axon extension length (average neurite outgrowth length) versus NIM control (hMSCs [8]): no significant difference
nanofiber diameter [9]: around 10 ± 1 nm
ThT fluorescence enhancement ratio [10]: 210

perfluorophenyl-capped Ile-Lys-Val-Ala-Val
FT-IR absorption peak (hydrogen bonding): 1630 cm⁻¹
new absorption band in water [11]: 285 nm

phenyl-capped Ile-Lys-Val-Ala-Val [Ben-IKVAV, phenyl-capped pentapeptide; IKVAV N-terminally coupled with 2-phenylacetic acid; hydrogelator]
hydrogel formation [3]: form white translucent hydrogels
Tgel-sol [3]: 65 °C
cell viability (hMSCs [4]): over 75%
IC50 (hMSCs [4]): > 500 µM
storage modulus (G′) [5]: 32.0 kPa
concentration at which the peptide self-assembles into high-order supramolecular structures [6]: higher than 1000 μM
differentiation of hMSCs into neuron-like cells (hMSCs [8]): could successfully differentiate hMSCs into neuron-like cells
cell morphology and axon extension length (average neurite outgrowth length) versus NIM control (hMSCs [8]): no significant difference
nanofiber diameter [9]: 4 ± 2 nm
width of fiber bundles [9]: about 17 ± 1 nm
ThT fluorescence enhancement ratio [10]: 140
